pIC50: −log10 of the molar value. Active and inactive are the calls of the source.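 The calls were made as follows: active = IC50 against T. cruzi CYP51 below a set limit; inactive = the rest.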

The target in the assay is Sterol 14-alpha demethylase (Trypanosoma cruzi (strain CL Brener)) (UniProt Q7Z1V1). Put plainly: TcCYP51 inhibitors, dose response, mechanism study for T. cruzi antiparasitic project, biochemical, recombinant enzyme (AID 1159558).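 Also: enzyme in bacterial membranes with Anopheles gambiae CYP reductase and cytochrome b5 partners.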 The note with it: recombinant T. cruzi CYP51, BOMCC fluorescence.
Sequence of Sterol 14-alpha demethylase (Trypanosoma cruzi (strain CL Brener)) (Q7Z1V1 whole entry, looked up): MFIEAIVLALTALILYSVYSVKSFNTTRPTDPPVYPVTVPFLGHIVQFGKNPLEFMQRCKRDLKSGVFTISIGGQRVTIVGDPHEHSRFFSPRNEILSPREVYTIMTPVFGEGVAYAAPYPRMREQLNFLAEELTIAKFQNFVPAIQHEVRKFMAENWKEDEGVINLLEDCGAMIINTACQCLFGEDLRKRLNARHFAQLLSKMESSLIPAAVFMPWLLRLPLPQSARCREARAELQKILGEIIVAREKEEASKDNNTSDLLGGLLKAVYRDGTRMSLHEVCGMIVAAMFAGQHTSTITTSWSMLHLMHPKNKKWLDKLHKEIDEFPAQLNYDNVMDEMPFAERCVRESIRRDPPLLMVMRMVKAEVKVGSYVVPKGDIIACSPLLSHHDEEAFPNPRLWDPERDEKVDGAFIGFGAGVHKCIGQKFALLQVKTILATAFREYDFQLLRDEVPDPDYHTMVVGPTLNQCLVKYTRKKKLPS
On to `N#Cc1cccc(CN2CCC(c3nc(-c4ccc(C(F)(F)F)nc4)no3)CC2)c1`, for which the IC50 (commonly the concentration that inhibits the measured activity by half) is > 100 µM (inactive). Turning to `N#Cc1cccc(Cc2cc(Nc3cc(C4CC4)[nH]n3)nc(N3CC[C@H]3C(N)=O)n2)c1`, the pIC50 (usually −log10 of the IC50, conventionally taken in molar units) was 4.30. Still for that read-out and setting: with `Cc1ccccc1OCC(=O)N1CCCN(c2cccnn2)CC1` the figure was 7.10; with `CCN(CC)S(=O)(=O)c1ccc(Cn2nc(C(=O)Nc3ccncn3)c3ccccc32)cc1`, 6.80. Still for that read-out and setting: with `CC(Cn1ccnc1)NC(=O)C1CC1c1cccc(Cl)c1Cl` (stereo unspecified) the figure was 6.89; with `CN(CCOc1ccc(Cl)cc1)Cc1nc(N)nc(N(C)C)n1`, 4.49. As to `O=c1ccc2ccc(F)c3c2n1C[C@H]3CN1CCN(CC(O)c2cc3c(cn2)OCS3)CC1` (stereo partly specified), the IC50 is > 100 µM (inactive). Same read-out and setting: under `COc1cccc(CN(C)Cc2nc(N)c3c(C)c(C)sc3n2)c1` stands > 100 µM (inactive). As for `CN1C(=O)c2ccccc2Sc2ccc(NC(=O)NCc3ccco3)cc21`, the pIC50 is 4.49. With `Cc1cc2ncn(-c3ccc([N+](=O)[O-])cc3C#N)c2cc1C`, the IC50 was > 100 µM (inactive).

With `CCS(=O)(=O)c1cccc(C(=O)Nc2nc(-c3ccccn3)cs2)c1`, the pIC50 was 4.20.

With `Clc1ccc(CN2CCN(C3=NCCN3)CC2)cc1Cl`, the IC50 was > 100 µM (inactive). Regarding `O=C(O)[C@H]1C[C@@H]1c1ccc(-c2ccc(CN(CCc3ccccn3)C(=O)C3CCC3)cc2)cc1`, the pIC50 is 4.70.

For the compound `O=C(NCc1nnc2n1CCCCC2)c1csc(-c2ccccc2)n1`, the IC50 was > 100 µM (inactive). In the case of `COc1ccc(NS(=O)(=O)c2cc(-c3cc(C)[nH]n3)ccc2C)cc1OC`, the pIC50 was 4.40. The same measure, in the same setting: with `CN(Cc1nnnn1C1CCN(Cc2ccc(-n3ccnc3)cc2)CC1)c1ccc(F)cc1F` the figure was 6.89; with `NCc1csc(Nc2cc(Oc3ccccc3)ncn2)n1`, 6.49; with `CN(C)S(=O)(=O)c1cccc(CSc2nnc(-c3ccc4c(c3)OCO4)o2)c1`, 4.89. Still for that read-out and setting: under `O=C1CSC(c2cccnc2)N1c1ccc(Cl)cc1Cl` (stereo unspecified) stands 6.80; under `Cc1ccc(S(=O)(=O)Cn2nnnc2C(c2cccnc2)N2CCN(c3ccccc3)CC2)cc1` (stereo unspecified), 6.70. Still for that read-out and setting: under `CC(C)(C)Nc1nc(Nc2ccc3c(c2)CS(=O)(=O)C3)nc2[nH]ccc12` stands 4.60. Consider `CCN(CC)c1nc(Nc2ccncc2)nc2ccccc12`, for which the IC50 is > 100 µM (inactive). On to `CS(=O)(=O)c1cccc(-c2cnc(N)c3c(-c4ccc(CO)cc4)csc23)c1`, for which the pIC50 is 5.49. On the same count and under the same terms, under `CC(C)CC(=O)NC(c1cccs1)c1ccc2cccnc2c1O` (stereo unspecified) stands 4.30. Turning to `CCOc1ccc(NC(=O)c2ccc(NC(=O)NC3CCCCC3)cc2)cc1`, the IC50 was > 100 µM (inactive). Consider `Cc1[nH]nc2c1C(c1ccc(OCc3ccccc3F)cc1)SCC(=O)N2` (stereo unspecified), for which the IC50 was > 100 µM (inactive).

In the case of `N#Cc1cccc(CNc2ccc(-c3cnn(CC4CC4)c(=O)c3C#N)cc2)c1`, the pIC50 is 5.20.

For `CN(C)S(=O)(=O)c1cccc(C(=O)Nc2nc(-c3ccccn3)cs2)c1`, the pIC50 was 4.49. As for `CCCN(Cc1ccc(OC)c(OC)c1)Cc1cc(=O)c2c(C)cc(C)cc2[nH]1`, the IC50 was > 100 µM (inactive).

Regarding `CCOc1ccc(OCC(=O)N2c3ccccc3CC2C(=O)NC)cc1` (stereo unspecified), the IC50 was > 100 µM (inactive). Take `O=C(Nc1nc(-c2ccc(S(=O)(=O)N3CCOCC3)cc2)cs1)c1ccc([N+](=O)[O-])cc1`: the IC50 is > 100 µM (inactive).

On to `c1ccc2[nH]c(-c3ccc(N4CCCC4)nc3)nc2c1`, for which the IC50 was > 100 µM (inactive). As to `Cc1ccc2nc(N(Cc3cccnc3)C(=O)CCc3ccccc3)sc2c1`, the pIC50 is 7.20. Turning to `O=C(NCCc1cccnc1)c1csc(-c2ccccc2)n1`, the pIC50 was 7.20. On to `COc1ncc(-c2ccc3ncnc(N4CCOCC4)c3c2)cc1NS(C)(=O)=O`, for which the pIC50 is 4.40. On the same count and under the same terms, under `O=C(CN(Cc1ccccn1)Cc1ccccn1)NCc1csc(-c2cccs2)n1` stands 4.40; under `CC1=C(C(=O)Nc2ccc(Cl)cc2)C(c2ccncc2)n2ncc(C(=O)Nc3ccccc3)c2N1` (stereo unspecified), 6.89; under `CCCCCNC(=O)c1c[nH]c2ccc(S(=O)(=O)N(C)c3ccc(OCC)cc3)cc2c1=O`, 5.80.

With `COc1ccc(Cl)cc1CC(=O)Nc1n[nH]c(-c2ccccn2)n1`, the IC50 is > 100 µM (inactive).

Take `CS(=O)(=O)c1ccc(Nc2nccc(-c3cnn4ncccc34)n2)cc1`: the pIC50 is 4.80. On to `NC(=O)c1ncccc1Nc1nc(NC2CCC(O)CC2)ncc1Br` (stereo unspecified), for which the IC50 is > 100 µM (inactive).

Turning to `CC(C(=O)Nc1ccc(Br)cc1)N1CCN(c2ccc([N+](=O)[O-])cc2)CC1` (stereo unspecified), the pIC50 is 4.40. On the same count and under the same terms, with `O=C(Nc1nc(-c2ccccn2)cs1)C1CCc2ccccc2C1` (stereo unspecified) the figure was 4.60. For the compound `O=C(Nc1nc2ccccc2[nH]1)c1ccc2nc[nH]c2c1`, the pIC50 was 5.30. As to `Cn1nc([N+](=O)[O-])nc1N1CCCCC1`, the IC50 is > 100 µM (inactive).

`O=C(Cc1ccccc1)Nc1ccccc1C(=O)Nc1nccs1`: the IC50 was > 100 µM (inactive). Take `N#Cc1ccccc1S(=O)(=O)N1CCN(C(=O)CNC(=O)c2ccc3c(c2)OCO3)CC1`: the pIC50 is 4.10.

Regarding `C=CC[C@@H]1CC=C[C@@H](C)N1C(=O)CCc1nnc(-c2ccc3c(c2)OCO3)o1`, the pIC50 was 4.40. Still for that read-out and setting: under `c1ccc2c(CCOc3nccnc3-c3ccncc3)c[nH]c2c1` stands 7.20.

`CCOc1ccc2nc(NC(=O)c3ccc([N+](=O)[O-])s3)sc2c1`: the IC50 was > 100 µM (inactive). Same read-out and setting: under `Cc1ccc(S(C)(=O)=O)cc1Nc1nccc(-c2sc(N)nc2-c2ccccc2)n1` stands > 100 µM (inactive); under `Cc1cc2nc(N3CC[C@H]3C(N)=O)nc(Nc3cc(C4CC4)[nH]n3)c2s1`, > 100 µM (inactive).

With `COc1ccccc1C(=O)Nc1nnc(-c2ccc3c(c2)OCO3)s1`, the IC50 was > 100 µM (inactive). As for `O=C(NCC1CCCCC1)c1cc(=O)c2ccccc2o1`, the IC50 is > 100 µM (inactive).

In the case of `CCc1ccc2nc(NC(=O)c3cc(N4CCOCC4)ccn3)sc2c1`, the IC50 was > 100 µM (inactive). Take `CC(C)N(C(=O)CN1C(=O)C(N)C(=O)N(c2ccccc2)c2ccccc21)c1ccccc1` (stereo unspecified): the pIC50 was 6.49. As for `COc1ccccc1-n1c(SCC(=O)Nc2ccc3c(c2)OCO3)nc2c(c1=O)SCC2`, the pIC50 is 4.20. In the case of `Cc1nc2nc(C)c(Cc3ccc(C(C)C)cc3)c(=O)n2[nH]1`, the IC50 is > 100 µM (inactive). On to `CCCc1nc2nc(N)nc(N)c2cc1CC`, for which the IC50 was > 100 µM (inactive). For the compound `Cc1ccc(Nc2nc(C3CCCN3Cc3ccn[nH]3)cs2)nc1` (stereo unspecified), the negative logarithm of the IC50 (pIC50) is 5.20.

On to `CC1(Oc2cncc(Cl)c2)CCN(Cc2cc3ccccc3[nH]2)C1` (stereo unspecified), for which the pIC50 is 5.00. For `CN(C)CCN(C)Cc1ccc(Cl)cc1NS(=O)(=O)c1ccc(Cl)c(Cl)c1`, the pIC50 was 4.49.

On to `COc1ccc(C2CC(c3ccc(NS(C)(=O)=O)cc3)=NN2C(=O)c2cccs2)cc1OC` (stereo unspecified), for which the pIC50 is 4.89. In the case of `N#Cc1ccc(S(=O)(=O)N2CCN(Cc3cccc(-c4ccncc4)c3)CC2)cc1`, the pIC50 is 7.10.

For `Clc1cc(Br)ccc1OCCCCn1ccnc1`, the pIC50 was 7.20. On the same count and under the same terms, with `Cc1nc(N2CCC(C(=O)N3CCC(O)(c4cccnc4)CC3)CC2)nc2ccc(C(C)C)cc12` the figure was 6.89.

(Values after PubChem BioAssay AID1159558 (GlaxoSmithKline (GSK), 2015).)
